Some results are limits rather than exact numbers.

Type in all cases: biochemical
In one test the target is T1, HDAC4 (Homo sapiens, UniProt P56524).
T1 construct: cDNAs encoding truncated versions of HDAC4, 5 and 7 encompassing their deacetylase domains; hexahistidine (N); made in house; host or cells: Sf-9 insect cells (baculovirus)
The test can be described thus: Fluorescence-based HDAC enzyme assay, recombinant HDAC4. As to conditions: recombinant human HDAC enzyme in vitro; read-out: IC50 (μM) HD4. An excerpt:
(§1) cDNAs of human HDAC1-8 and 11 were generated by RT-PCR reactions using primers complementary to the 5′ and 3′ coding sequence of human HDAC gene sequences in GenBank. cDNAs corresponding to the full length human HDAC1, 2, 3 and 11 were cloned into pBlueBac4.5 vector (Invitrogen). The constructs were used to generate recombinant baculoviruses using the Bac-N-Blue™ DNA according to the manufacturer's instructions (Invitrogen). The recombinant HDAC1, 2, 3, 11 proteins produced harbor a FLAG tag at their C-termini. cDNAs encoding truncated versions of HDAC4, 5 and 7 encompassing their deacetylase domains were cloned into pDEST10 as an N-terminal hexahistidine fusion protein and recombinant baculoviruses were generated using the Bac-to-Bac™ Baculovirus expression system (Invitrogen). HDAC6 and 8 were cloned as full length N-terminally His-tagged protein. All HDAC proteins were expressed in insect Sf-9 cells (Spodoptera frugiperdai) upon infection with recombinant baculovirus. HDAC1 enzyme was purified from the Q-sepharose FF column (Amersham Pharmacia Biotech, Baie d'Urfe QC, Canada) followed by an anti-FLAG immunoaffinity column (Sigma). HDAC2, 3 and 11 were purified using Flag-antibody immunoaffinity purification. HDAC4, 5, 6, 7 and 8 were purified using either Ni-NTA resin (QIAGEN Mississauga ON, Canada) or His-Select resin (Sigma) with step washes and elution with different concentrations of imidazole in Buffer containing 25 mM Tris (or NaPO4) pH 8.0, 10% glycerol and 150 mM or 500 mM NaCl.
(§2) Recombinant HDAC enzymes were incubated with diluted compounds in assay buffer (25 mM Hepes, pH 8.0, 137 mM NaCl, 1 mM MgCl2 and 2.7 mM KCl) for 10 minutes at ambient temperatures in black 96-well plate. Boc-Lys(Ac)-AMC (for HDAC1, 2, 3, 6, and 8 enzymes), which was purchased from Bachem Biosciences Inc., (King of Prussia, Philadelphia) were added into enzyme-compound mixture and incubated at 37° C. For HDAC4, 5, 7 assays, Boc-Lys(TFA)-AMC, which was synthesized in house, was used as substrate and 0.1% BSA was added to the buffer. […] Reaction time was predetermined to ensure that reaction was linear for the incubation time. Reaction was stopped by adding a freshly prepared trypsin (1 mg/ml final concentration) with 1 μM TSA (Biomol) in assay buffer. After 30 minutes, fluorescence was measured using a fluorometer (SPECTRAMAX GeminiXS, Molecular Devices, Sunnylvale, Calif.). The 50% inhibitory concentrations (IC50) for inhibitors were determined by analyzing dose-response inhibition curves.

The target in another test is T2, HDAC6 (Homo sapiens, UniProt Q9UBN7).
T2 construct: HDAC6 and 8 were cloned as full length N-terminally His-tagged protein; His tag (N); made in house; host or cells: Sf-9 insect cells (baculovirus)
T2 sequence (Q9UBN7 1-1215): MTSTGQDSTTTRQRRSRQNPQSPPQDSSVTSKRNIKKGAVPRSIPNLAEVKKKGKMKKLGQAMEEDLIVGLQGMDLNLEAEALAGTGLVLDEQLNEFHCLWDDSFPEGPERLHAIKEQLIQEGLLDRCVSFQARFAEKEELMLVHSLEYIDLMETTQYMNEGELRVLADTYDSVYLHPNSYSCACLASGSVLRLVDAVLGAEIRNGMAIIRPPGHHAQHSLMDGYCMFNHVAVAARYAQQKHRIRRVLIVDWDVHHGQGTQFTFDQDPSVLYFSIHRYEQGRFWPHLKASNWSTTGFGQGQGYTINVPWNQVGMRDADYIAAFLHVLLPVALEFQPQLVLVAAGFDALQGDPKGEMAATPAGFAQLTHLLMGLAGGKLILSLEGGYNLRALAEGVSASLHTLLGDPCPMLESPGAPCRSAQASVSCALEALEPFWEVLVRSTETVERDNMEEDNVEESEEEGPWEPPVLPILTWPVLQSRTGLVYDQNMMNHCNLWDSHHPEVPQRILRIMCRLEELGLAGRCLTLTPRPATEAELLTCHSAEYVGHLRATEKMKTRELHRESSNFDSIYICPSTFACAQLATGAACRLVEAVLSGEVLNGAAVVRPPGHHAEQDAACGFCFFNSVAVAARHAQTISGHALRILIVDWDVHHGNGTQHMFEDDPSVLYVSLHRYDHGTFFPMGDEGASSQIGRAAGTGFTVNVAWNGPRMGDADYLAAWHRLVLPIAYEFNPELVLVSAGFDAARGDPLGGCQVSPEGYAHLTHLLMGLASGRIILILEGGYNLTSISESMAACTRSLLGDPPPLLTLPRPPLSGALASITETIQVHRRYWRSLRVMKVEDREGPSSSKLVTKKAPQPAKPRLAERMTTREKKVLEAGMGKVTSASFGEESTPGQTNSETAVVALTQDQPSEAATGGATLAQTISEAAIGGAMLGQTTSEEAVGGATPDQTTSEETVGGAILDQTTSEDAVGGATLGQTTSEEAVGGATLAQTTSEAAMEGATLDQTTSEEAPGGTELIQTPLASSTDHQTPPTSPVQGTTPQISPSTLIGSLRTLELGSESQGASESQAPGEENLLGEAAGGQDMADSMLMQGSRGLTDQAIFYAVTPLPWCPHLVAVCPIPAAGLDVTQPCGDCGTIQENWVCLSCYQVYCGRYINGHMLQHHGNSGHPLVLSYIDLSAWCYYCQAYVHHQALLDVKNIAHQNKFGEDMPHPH
The experiment in a line: Fluorescence-based HDAC enzyme assay, recombinant HDAC6. The conditions noted are these: recombinant human HDAC enzyme in vitro; read-out: IC50 (μM) HD6.
Text: as §1, §2

For another test, the target named is T3, HDAC8 (Homo sapiens, UniProt Q9BY41).
T3 construct: HDAC6 and 8 were cloned as full length N-terminally His-tagged protein; His tag (N); made in house; host or cells: Sf-9 insect cells (baculovirus)
T3 sequence (Q9BY41 1-377): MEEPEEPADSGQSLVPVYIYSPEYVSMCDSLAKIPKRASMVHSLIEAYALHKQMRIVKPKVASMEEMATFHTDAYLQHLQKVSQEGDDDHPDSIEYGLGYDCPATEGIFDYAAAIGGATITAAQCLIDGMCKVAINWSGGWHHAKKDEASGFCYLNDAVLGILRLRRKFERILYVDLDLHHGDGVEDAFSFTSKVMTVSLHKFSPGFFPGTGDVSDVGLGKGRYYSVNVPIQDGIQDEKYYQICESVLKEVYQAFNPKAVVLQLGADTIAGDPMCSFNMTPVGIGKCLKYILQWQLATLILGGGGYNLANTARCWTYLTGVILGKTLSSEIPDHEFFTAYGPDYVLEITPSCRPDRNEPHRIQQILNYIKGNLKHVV
The test can be described thus: Fluorescence-based HDAC enzyme assay, recombinant HDAC8. As to conditions: recombinant human HDAC enzyme in vitro; read-out: IC50 (μM) HD8.
Text: as §1, §2

T1 sequence (P56524 655-1084 limits assumed): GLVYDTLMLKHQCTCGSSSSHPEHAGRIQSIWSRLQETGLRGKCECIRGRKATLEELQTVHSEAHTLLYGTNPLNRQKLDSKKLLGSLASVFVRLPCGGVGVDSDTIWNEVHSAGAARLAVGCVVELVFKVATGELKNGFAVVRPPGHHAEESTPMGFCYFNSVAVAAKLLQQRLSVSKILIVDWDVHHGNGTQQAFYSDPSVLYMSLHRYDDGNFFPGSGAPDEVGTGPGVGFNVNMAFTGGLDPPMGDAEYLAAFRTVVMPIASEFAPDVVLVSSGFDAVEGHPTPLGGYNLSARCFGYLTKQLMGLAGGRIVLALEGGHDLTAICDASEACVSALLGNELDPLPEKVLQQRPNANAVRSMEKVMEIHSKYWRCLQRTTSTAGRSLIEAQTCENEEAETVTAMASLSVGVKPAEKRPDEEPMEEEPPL

For the compound `CN1CCN(c2ccc(C(=O)Nc3cc(-c4ccncc4)ccc3N)cc2)CC1` [Compound G], the IC50 on HDAC4, on HDAC6 and at HDAC8 was over 10 µM in each case.

Take `Nc1ccc(-c2ccccc2)cc1NC(=O)c1ccc(N2CCC(N)CC2)cc1` [Compound E]: the IC50 on HDAC4, on HDAC6 and at HDAC8 was over 10 µM each time.

For the compound `Nc1ccccc1NC(=O)c1ccc(N2CC[C@H](Nc3cccnc3)C2)cc1` [Compound B], the IC50 on HDAC4 was over 10 µM; on HDAC6, over 10 µM; on HDAC8, 1.63 µM.

Regarding `CC(C)N1CCN(c2ccc(C(=O)Nc3cc(-c4ccncc4)ccc3N)cc2)CC1` [Compound H], the IC50 at HDAC4, at HDAC6 and on HDAC8 was over 10 µM throughout.

On to `Nc1ccc(-c2ccccc2)cc1NC(=O)c1ccc(N2CC[C@H](N)C2)cc1` [Compound D], for which the IC50 on HDAC4, on HDAC6 and on HDAC8 was over 10 µM throughout.

In the case of `CN1CCN(c2ccc(C(=O)Nc3cc(-c4ccccn4)ccc3N)cc2)CC1` [Compound F], the IC50 on HDAC4, at HDAC6 and at HDAC8 was over 10 µM each time.
